Values belong to the molecule of their own block, whether it stands above or below them.
Tests used:
[1] = molecular target: T1, Serine/threonine-protein kinase LATS1 (Homo sapiens) (UniProt O95835); assay: Selectivity interaction (KinomeScan (DiscoverX)) EUB0000666a LATS1; conditions: at 10 µM
T1 sequence (whole entry): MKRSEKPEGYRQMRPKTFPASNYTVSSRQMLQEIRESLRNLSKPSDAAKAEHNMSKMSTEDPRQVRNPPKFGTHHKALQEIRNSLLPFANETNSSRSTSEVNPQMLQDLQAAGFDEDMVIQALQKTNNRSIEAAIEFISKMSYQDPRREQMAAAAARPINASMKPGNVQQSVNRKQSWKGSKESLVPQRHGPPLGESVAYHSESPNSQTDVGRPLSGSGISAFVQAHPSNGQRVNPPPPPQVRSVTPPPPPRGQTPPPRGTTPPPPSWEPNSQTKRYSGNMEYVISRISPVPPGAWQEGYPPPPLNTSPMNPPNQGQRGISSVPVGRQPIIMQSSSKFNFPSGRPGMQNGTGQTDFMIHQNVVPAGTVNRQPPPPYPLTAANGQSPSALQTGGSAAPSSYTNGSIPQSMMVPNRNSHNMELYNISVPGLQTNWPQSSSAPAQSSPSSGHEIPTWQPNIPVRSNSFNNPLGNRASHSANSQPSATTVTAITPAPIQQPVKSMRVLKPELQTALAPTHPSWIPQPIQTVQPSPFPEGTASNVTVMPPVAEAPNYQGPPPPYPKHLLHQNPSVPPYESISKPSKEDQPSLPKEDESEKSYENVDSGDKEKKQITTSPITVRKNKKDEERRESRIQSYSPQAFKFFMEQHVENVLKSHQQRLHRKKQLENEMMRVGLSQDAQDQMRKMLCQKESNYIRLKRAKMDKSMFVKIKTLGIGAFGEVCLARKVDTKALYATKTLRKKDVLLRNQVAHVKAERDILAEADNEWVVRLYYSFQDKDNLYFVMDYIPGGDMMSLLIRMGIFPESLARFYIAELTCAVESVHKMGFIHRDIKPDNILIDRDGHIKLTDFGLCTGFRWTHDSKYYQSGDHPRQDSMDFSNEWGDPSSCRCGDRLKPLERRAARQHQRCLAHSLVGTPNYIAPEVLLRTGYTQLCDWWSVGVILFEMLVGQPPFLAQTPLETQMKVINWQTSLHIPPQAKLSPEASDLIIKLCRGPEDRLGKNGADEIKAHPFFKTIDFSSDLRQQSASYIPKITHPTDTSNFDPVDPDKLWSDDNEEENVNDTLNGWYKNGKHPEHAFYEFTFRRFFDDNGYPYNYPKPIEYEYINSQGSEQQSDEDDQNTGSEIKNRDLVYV

[2] = molecular target: Tyrosine-protein kinase ABL1 (Homo sapiens, UniProt P00519); assay: Selectivity interaction (KinomeScan (DiscoverX)) EUB0000666a ABL1; conditions: at 10 µM
Chain of Tyrosine-protein kinase ABL1 (P00519 whole entry): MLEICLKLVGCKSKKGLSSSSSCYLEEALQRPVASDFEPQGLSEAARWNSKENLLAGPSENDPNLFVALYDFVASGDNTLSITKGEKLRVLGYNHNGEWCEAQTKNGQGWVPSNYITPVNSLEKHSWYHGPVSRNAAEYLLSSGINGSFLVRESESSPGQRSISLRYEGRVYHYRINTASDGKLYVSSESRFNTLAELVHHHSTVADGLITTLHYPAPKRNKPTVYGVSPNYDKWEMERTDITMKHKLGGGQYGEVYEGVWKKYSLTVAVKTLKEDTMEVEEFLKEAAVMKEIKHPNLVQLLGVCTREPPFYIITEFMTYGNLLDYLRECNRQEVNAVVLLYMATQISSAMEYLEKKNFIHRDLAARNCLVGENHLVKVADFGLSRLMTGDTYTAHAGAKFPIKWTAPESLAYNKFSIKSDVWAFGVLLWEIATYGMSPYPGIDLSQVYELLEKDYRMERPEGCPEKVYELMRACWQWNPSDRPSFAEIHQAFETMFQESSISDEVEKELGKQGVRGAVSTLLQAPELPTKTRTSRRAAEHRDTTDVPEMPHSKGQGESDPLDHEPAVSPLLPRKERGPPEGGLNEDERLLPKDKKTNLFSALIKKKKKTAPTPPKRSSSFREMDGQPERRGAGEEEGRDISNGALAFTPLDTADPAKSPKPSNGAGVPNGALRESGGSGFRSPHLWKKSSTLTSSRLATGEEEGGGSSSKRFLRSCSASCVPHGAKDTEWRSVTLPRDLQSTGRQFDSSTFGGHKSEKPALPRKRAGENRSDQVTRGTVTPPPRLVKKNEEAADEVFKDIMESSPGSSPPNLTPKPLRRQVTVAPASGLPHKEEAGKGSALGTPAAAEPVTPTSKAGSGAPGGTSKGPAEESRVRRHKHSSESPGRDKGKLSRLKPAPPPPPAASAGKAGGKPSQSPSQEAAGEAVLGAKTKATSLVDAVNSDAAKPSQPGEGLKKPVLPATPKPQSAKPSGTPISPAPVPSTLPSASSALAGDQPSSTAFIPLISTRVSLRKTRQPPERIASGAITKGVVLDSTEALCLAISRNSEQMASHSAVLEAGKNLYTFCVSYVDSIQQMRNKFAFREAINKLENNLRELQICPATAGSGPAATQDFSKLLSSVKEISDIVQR

[3] = molecular target: Eukaryotic translation initiation factor 2-alpha kinase 1 (Homo sapiens) (UniProt Q9BQI3); assay: Selectivity interaction (KinomeScan (DiscoverX)) EUB0000666a EIF2AK1; conditions: at 10 µM
Chain of Eukaryotic translation initiation factor 2-alpha kinase 1 (Homo sapiens) (Q9BQI3 whole entry): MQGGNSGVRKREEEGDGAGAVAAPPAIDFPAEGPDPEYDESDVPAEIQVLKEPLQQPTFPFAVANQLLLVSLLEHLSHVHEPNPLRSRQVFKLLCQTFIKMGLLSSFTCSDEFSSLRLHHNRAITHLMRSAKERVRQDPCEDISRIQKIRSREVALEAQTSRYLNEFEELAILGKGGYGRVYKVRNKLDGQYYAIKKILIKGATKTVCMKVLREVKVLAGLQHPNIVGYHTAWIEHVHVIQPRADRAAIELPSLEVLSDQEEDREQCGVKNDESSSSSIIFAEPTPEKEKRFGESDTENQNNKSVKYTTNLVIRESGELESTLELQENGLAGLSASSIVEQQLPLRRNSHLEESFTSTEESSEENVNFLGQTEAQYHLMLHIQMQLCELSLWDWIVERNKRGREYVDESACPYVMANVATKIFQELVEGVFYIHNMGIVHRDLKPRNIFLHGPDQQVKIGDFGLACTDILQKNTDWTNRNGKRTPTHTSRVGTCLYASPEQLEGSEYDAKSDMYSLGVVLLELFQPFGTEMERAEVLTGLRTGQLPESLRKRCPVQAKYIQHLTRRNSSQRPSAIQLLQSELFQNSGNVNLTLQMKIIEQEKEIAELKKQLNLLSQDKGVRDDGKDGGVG

[4] = molecular target: Mitogen-activated protein kinase 4 (Homo sapiens) (UniProt P31152); assay: Selectivity interaction (KinomeScan (DiscoverX)) EUB0000666a MAPK4; conditions: at 10 µM
Chain of Mitogen-activated protein kinase 4 (Homo sapiens) (P31152 whole entry): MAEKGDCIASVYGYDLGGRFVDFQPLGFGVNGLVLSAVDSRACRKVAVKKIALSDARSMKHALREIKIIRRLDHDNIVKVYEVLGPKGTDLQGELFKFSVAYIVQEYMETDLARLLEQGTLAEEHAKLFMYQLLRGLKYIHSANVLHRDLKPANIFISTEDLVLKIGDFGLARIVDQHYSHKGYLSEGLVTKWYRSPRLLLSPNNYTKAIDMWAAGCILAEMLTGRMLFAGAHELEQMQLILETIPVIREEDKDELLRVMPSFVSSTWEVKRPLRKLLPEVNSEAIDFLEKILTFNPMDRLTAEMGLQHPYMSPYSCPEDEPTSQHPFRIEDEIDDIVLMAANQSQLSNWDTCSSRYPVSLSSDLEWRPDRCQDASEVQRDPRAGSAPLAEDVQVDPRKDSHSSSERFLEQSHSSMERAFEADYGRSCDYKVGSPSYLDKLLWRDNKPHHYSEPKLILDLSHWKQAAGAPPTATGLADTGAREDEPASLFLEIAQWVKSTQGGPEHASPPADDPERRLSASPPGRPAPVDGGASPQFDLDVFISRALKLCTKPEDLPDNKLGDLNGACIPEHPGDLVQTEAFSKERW

[5] = molecular target: Serine/threonine-protein kinase 16 (Homo sapiens, UniProt O75716); assay: Selectivity interaction (ActivX KiNativ screen (kinase selectivity in THP-1 cell lysates)) EUB0000639a STK16; format: subcellular; conditions: lysate, at 0.2 µM
Chain of Serine/threonine-protein kinase 16 (O75716 whole entry): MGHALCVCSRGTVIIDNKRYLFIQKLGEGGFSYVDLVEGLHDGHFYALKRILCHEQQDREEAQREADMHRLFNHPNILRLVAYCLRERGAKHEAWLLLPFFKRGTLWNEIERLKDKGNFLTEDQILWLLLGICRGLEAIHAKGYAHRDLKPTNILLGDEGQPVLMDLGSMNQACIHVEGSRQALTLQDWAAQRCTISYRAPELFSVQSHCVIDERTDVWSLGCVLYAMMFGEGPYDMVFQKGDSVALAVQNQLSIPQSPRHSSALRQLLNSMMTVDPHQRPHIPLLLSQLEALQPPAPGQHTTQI

[6] = molecular target: Ephrin type-A receptor 7 (Homo sapiens) (UniProt Q15375); assay: Selectivity interaction (KinomeScan (DiscoverX)) EUB0001049a EPHA7; conditions: at 1 µM
[7] = molecular target: Tyrosine-protein kinase HCK (Homo sapiens) (UniProt P08631); assay: Selectivity interaction (KinomeScan (DiscoverX)) EUB0001049a HCK; conditions: at 1 µM
[8] = molecular target: Calcium/calmodulin-dependent protein kinase type II subunit alpha (Homo sapiens, UniProt Q9UQM7); assay: Selectivity interaction (KinomeScan (DiscoverX)) EUB0000045b CAMK2A
Chain of Calcium/calmodulin-dependent protein kinase type II subunit alpha (Q9UQM7 whole entry): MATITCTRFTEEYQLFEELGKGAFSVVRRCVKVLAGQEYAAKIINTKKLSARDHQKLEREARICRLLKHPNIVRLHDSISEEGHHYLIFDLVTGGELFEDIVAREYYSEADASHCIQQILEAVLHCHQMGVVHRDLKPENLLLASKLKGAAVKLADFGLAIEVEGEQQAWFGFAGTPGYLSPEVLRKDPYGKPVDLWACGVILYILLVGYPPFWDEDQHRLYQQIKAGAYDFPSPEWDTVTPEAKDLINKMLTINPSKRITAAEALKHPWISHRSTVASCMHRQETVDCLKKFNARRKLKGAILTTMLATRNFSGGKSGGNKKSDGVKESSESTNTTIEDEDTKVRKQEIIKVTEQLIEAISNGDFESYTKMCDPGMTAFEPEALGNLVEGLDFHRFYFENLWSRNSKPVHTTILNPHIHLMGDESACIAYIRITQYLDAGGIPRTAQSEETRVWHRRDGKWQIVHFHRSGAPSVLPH

[9] = molecular target: Dual specificity testis-specific protein kinase 1 (Homo sapiens) (UniProt Q15569); assay: Selectivity interaction (KinomeScan (DiscoverX)) EUB0000229b TESK1; conditions: at 10 µM
Chain of Dual specificity testis-specific protein kinase 1 (Homo sapiens) (Q15569 whole entry, looked up): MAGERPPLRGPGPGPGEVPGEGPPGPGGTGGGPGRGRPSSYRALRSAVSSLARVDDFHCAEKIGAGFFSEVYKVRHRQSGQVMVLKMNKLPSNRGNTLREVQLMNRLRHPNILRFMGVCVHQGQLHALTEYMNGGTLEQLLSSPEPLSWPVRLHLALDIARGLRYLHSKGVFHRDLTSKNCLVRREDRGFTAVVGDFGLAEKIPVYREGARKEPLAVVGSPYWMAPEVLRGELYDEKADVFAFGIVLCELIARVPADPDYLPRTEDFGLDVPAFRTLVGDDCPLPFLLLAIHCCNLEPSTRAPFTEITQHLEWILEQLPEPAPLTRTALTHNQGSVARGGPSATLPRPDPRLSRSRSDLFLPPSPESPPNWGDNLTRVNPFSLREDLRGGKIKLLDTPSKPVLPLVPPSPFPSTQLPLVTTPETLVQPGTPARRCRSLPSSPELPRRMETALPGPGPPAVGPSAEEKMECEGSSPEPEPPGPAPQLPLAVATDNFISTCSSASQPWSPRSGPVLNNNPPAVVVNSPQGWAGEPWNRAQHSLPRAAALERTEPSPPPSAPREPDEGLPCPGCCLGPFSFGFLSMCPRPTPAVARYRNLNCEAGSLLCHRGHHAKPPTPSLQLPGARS

[10] = molecular target: Fibroblast growth factor receptor 3 (Homo sapiens, UniProt P22607); assay: Selectivity interaction (KinomeScan (DiscoverX)) EUB0000092b FGFR3; conditions: at 10 µM
Chain of Fibroblast growth factor receptor 3 (P22607 23-806 limits assumed): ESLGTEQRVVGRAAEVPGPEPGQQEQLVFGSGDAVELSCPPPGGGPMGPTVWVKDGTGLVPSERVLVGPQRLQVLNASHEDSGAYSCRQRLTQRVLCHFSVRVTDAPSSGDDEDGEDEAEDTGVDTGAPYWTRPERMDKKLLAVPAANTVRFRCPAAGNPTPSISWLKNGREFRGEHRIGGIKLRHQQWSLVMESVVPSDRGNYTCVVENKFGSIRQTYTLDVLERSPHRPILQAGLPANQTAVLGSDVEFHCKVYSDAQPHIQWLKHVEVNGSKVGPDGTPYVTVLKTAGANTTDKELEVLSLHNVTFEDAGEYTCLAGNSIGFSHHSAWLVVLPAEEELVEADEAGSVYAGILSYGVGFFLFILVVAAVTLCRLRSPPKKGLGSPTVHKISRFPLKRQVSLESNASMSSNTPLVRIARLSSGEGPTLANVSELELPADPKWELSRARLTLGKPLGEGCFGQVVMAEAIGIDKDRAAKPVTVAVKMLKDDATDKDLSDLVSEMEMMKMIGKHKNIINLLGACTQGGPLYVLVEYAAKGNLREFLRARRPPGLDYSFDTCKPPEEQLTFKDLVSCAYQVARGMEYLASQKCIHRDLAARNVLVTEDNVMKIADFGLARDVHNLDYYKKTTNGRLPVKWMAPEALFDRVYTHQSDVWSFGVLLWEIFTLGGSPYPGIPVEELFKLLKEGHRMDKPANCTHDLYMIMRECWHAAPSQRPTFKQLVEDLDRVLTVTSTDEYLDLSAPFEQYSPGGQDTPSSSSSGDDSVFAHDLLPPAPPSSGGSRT

[11] = molecular target: T2, Receptor-interacting serine/threonine-protein kinase 1 (Homo sapiens) (UniProt Q13546); assay: Selectivity interaction (KinomeScan (DiscoverX)) EUB0000092b RIPK1; conditions: at 10 µM
T2 sequence (whole entry): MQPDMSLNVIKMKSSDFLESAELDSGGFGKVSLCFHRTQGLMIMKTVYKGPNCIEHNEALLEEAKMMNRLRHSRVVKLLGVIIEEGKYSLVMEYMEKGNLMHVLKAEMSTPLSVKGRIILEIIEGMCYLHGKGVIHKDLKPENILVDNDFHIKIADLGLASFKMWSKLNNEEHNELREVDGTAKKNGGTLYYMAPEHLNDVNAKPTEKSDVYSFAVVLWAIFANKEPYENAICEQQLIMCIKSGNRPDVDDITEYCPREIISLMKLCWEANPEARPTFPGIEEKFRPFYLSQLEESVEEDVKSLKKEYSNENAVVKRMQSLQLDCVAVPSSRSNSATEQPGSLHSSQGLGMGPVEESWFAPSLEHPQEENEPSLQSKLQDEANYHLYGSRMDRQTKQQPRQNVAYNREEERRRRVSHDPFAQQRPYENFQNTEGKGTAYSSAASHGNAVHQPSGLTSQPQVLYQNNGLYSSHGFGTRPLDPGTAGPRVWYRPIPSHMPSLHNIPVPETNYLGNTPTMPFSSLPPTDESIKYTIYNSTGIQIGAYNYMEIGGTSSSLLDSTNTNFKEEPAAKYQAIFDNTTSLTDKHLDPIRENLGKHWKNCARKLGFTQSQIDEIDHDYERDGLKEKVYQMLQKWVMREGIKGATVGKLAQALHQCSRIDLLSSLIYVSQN

Structure (SMILES): O=C(NOC[C@H](O)CO)c1ccc(F)c(F)c1Nc1ccc(I)cc1F
% of control [1]: 100% | % of control [2]: 97% | % of control [3]: 100% | % of control [4]: 77%

% of inhibition [5]: 35.1%
Structure (SMILES): CC[C@@H]1[C@H](F)C(=O)N[C@@H]1COc1nccc2cc(C(N)=O)c(OC)cc12 [ZIMLOVISERTIB]

Structure (SMILES): COc1cc(Nc2nc(C)cc(-c3cnn4nc(OC)ccc34)n2)cc(C(F)(F)F)c1
% of control [6]: 77% | % of control [7]: 100%

Structure (SMILES): C=CC(=O)Nc1cc(-n2c(=O)ccc3cnc4ccc(-c5ccc(NS(C)(=O)=O)cc5)cc4c32)ccc1C
% of control ([8]; at 1 µM): 98% | % of control ([8]; at 10 µM): 69%

Structure (SMILES): COc1cc(N(C)c2ccnc3ccc(C(F)(F)F)cc23)cc(OC)c1OC
% binding [9]: 90%

Structure (SMILES): CCC(=O)N1CCN(c2ccc(-n3c(=O)ccc4cnc5ccc(-c6cnc7ccccc7c6)cc5c43)cc2C(F)(F)F)CC1
% of control [10]: 42% | % of control [11]: 1.9%
